Consider 23 molecules from ChEMBL document CHEMBL1125565, “Hypoxia-selective antitumor agents. 6. 4-(Alkylamino)nitroquinolines: a new class of hypoxia-selective cytotoxins” (J Med Chem, 1992).

A word on the IC50: it is the midpoint of a concentration-inhibition curve. As a reminder, the pKa is the pH at which an ionisable group is half protonated.

In data set [1] the test system is Nucleic Acid.
Description: (§1) Inhibitory concentration against DNA-bound ethidium bromide
Data set [2] deals with CHO-AA8. Put plainly: cells. Conditions: Cricetulus griseus, CHO-AA8, 18 h.
Description: Growth inhibition in CHO subline AA8 cells exposed for 18 hr under aerobic(air) conditions
Data set [3] is described as follows: physchem. Conditions: aqueous solution.
Description: (§2) Compound was evaluated for quinoline pKa value in aqueous solution at 25 degree Celsius by spectrophotometry
The nature of data set [4]: physchem. Conditions: aqueous solution. This is another data set of the same source.
Description: as §2
The subject of data set [5] is CHO-AA8. Put plainly: cells. Conditions: Cricetulus griseus, CHO-AA8, 18 h. The source holds these as a separate data set.
Description: Growth inhibitory activity against CHO subline AA8 cells exposed for 18 hr under aerobic conditions
Data set [6] deals with Nucleic Acid. This is another data set of the same source.
Description: as §1

Structures are written as SMILES.

Consider `Cc1ccc([N+](=O)[O-])c2c(NCCCN(C)C)ccnc12`, for which the C50 in the data set with Nucleic Acid [1] was determined as 3 µM. In the data set on CHO-AA8 [2], this molecule had an IC50 of 29 µM. This molecule also registered a pKa in “physchem [3]” of 6.84.
For `Cc1c([N+](=O)[O-])ccc2c(NCCCN(C)C)ccnc12` the same measures were 2.9 µM, 21 µM and 6.71.
As for `CN(C)CCCNc1ccnc2ccc([N+](=O)[O-])cc12`, in the data set with Nucleic Acid [1], the C50 was 1 µM. In the data set with CHO-AA8 [2], this molecule showed a half-maximal inhibitory concentration (IC50) of 34 µM. Moreover, in the data set “physchem [4]”, the pKa was found to be 6.99.
Molecule `CN(C)CCCNc1ccnc2cccc([N+](=O)[O-])c12` came in with a C50 in the data set with Nucleic Acid [1] of 1.1 µM. Besides, in the data set on CHO-AA8 [2], the midpoint of inhibition, the IC50, lay at 12.4 µM. The molecule further gave a pKa in “physchem [4]” of 6.39.
Turning to `COCC(O)Cn1ccnc1[N+](=O)[O-]` (configuration not stated) [MISONIDAZOLE], in the data set with CHO-AA8 [2], the IC50 stood at 12100 µM.
In the case of `CN(C)CCCNc1c2ccccc2nc2cccc([N+](=O)[O-])c12` [NITRACRINE], 0.024 µM corresponded to half-maximal inhibition with CHO-AA8 [5] (IC50).
As for `CN(C)CCCNc1ncnc2cccc([N+](=O)[O-])c12`, the C50 with Nucleic Acid [1] came out at 4.3 µM. The same molecule came in with an IC50 with CHO-AA8 [2] of 82 µM. Also, the pKa in “physchem [3]” worked out at 4.05.
As for `CN(C)CCNc1ccnc2cccc([N+](=O)[O-])c12`, the C50 in the data set on Nucleic Acid [1] was found to be 1.5 µM. In the data set on CHO-AA8 [2], this molecule had a concentration for half-maximal inhibition (IC50) of 20.9 µM. The pKa in the data set “physchem [3]” is 5.77.
Turning to `COc1ccc([N+](=O)[O-])c2c(NCCCN(C)C)ccnc12`, half-maximal inhibition with CHO-AA8 [2] (IC50) required 6.8 µM. For the same molecule, the pKa in “physchem [3]” is 6.76.
`CN(C)CCCCNc1ccnc2cccc([N+](=O)[O-])c12` came in with a C50 with Nucleic Acid [1] of 3.1 µM. In addition, in the data set with CHO-AA8 [2], the IC50 turned out to be 9 µM. For the same molecule, the pKa in the data set “physchem [3]” is 6.71.
Turning to `CN(C)CCCNc1cc[n+](C)c2cccc([N+](=O)[O-])c12`, the IC50 in the data set with CHO-AA8 [5] is 5.8 µM. This molecule yielded a C50 in the data set with Nucleic Acid [6] of 3.6 µM.
With `CN(C)CCCNc1ccnc2c([N+](=O)[O-])cccc12`, the C50 with Nucleic Acid [1] was determined as 1.2 µM. The molecule further had an IC50 in the data set with CHO-AA8 [2] of 93 µM. The same molecule yielded a pKa in the data set “physchem [3]” of 6.91.
In the data set with CHO-AA8 [5], `CNc1ccc([N+](=O)[O-])c2c(NCCCN(C)C)ccnc12` registered a concentration for half-maximal inhibition (IC50) of 98 µM. The molecule further registered a pKa in the data set “physchem [3]” of 4.22.
Take `Cc1cnc2cccc([N+](=O)[O-])c2c1NCCCN(C)C`: in the data set with Nucleic Acid [1], the C50 came out at 1 µM. This molecule also yielded a 50% inhibitory concentration (IC50) with CHO-AA8 [2] of 33 µM. Moreover, the pKa in “physchem [3]” was 6.01.
For `Cc1nc2ccccc2c(NCCCN(C)C)c1[N+](=O)[O-]` the same measures were 8.6 µM, 226 µM and 5.35.
For `Cc1ccc2nccc(NCCCN(C)C)c2c1[N+](=O)[O-]` the same measures were 3.1 µM, 170 µM and 6.15.
`CN(C)CCCNc1ccnc2ccccc12` came in with a C50 in the data set with Nucleic Acid [1] of 4.6 µM. Inhibition in the data set on CHO-AA8 [2] was half-maximal at 125 µM (IC50). Also, the pKa in the data set “physchem [4]” was found to be 8.85.
`CN(C)CCN(C)c1ccnc2cccc([N+](=O)[O-])c12` returned a C50 in the data set with Nucleic Acid [1] of 3.9 µM. The molecule further returned an IC50 with CHO-AA8 [2] of 95 µM. In “physchem [3]”, this molecule registered a pKa of 4.86.
The corresponding values for `Cc1ccc2c(NCCCN(C)C)ccnc2c1[N+](=O)[O-]` are 4.6 µM, 253 µM and 5.51.
The molecule `CN(C)CCCNc1c([N+](=O)[O-])cnc2ccccc12` showed a C50 in the data set with Nucleic Acid [1] of 5 µM. In the data set with CHO-AA8 [2], the IC50 was 34 µM. In “physchem [4]”, this molecule yielded a pKa of 4.43.
In the data set on Nucleic Acid [1], `Cc1cc2nccc(NCCCN(C)C)c2cc1[N+](=O)[O-]` returned a C50 of 2.3 µM. The IC50 in the data set on CHO-AA8 [2] came to 28 µM. The molecule further yielded a pKa in the data set “physchem [3]” of 7.38.
`CN(C)CCCNc1ccnc2cc([N+](=O)[O-])ccc12` had a C50 in the data set on Nucleic Acid [1] of 0.9 µM. Also, inhibition in the data set on CHO-AA8 [2] was half-maximal at 46 µM (IC50). In “physchem [4]”, this molecule returned a pKa of 6.77.
Consider `Cc1cc(NCCCN(C)C)c2c([N+](=O)[O-])cccc2n1`, for which the C50 in the data set on Nucleic Acid [1] is 1.1 µM. The IC50 in the data set with CHO-AA8 [2] came to 6.6 µM. The pKa in “physchem [3]” stood at 6.41.
